Data from ChEMBL document CHEMBL4828736, “Discovery of ASTX029, A Clinical Candidate Which Modulates the Phosphorylation and Catalytic Activity of ERK1/2” (J Med Chem, 2021).

Legend:
in vivo [1] = conditions: BALB/c, mouse, iv, 0.5 mg/kg
in vivo [2] = conditions: BALB/c, mouse, iv, 0.5 mg/kg; remark: listed apart in the source
in vivo [3] = conditions: BALB/c, mouse, po, 5 mg/kg
in vivo [4] = conditions: BALB/c, mouse, po, 5 mg/kg; remark: listed apart in the source
in vivo [5] = conditions: BALB/c, mouse, po, 5 mg/kg; remark: listed apart in the source
in vitro [6] = conditions: CD1, mouse, microsomes
in vitro [7] = conditions: human, microsomes
physchem = conditions: buffer, pH 7.4
CYP3A4 = CYP3A4 (Homo sapiens, UniProt P08684); assay: in vitro; conditions: recombinant enzyme
COLO 205 = assay: cells; type: functional, cell-based; conditions: Homo sapiens, COLO 205, 96 h
[8] = molecular target: Mitogen-activated protein kinase 1 (Homo sapiens) (UniProt P28482); conditions: dose 1.0 nM, time 30.0 min
Sequence of Mitogen-activated protein kinase 1 (Homo sapiens) (P28482 whole entry): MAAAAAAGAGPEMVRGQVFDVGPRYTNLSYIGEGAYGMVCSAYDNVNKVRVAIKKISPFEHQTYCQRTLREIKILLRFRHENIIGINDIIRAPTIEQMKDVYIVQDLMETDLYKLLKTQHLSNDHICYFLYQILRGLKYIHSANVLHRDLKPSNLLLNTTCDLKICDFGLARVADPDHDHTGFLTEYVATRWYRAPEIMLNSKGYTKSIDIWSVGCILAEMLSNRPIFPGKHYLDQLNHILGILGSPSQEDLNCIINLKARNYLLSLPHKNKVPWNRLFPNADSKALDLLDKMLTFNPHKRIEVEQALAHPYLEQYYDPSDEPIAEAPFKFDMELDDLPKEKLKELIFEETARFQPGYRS

Sequence of CYP3A4 (P08684 whole entry): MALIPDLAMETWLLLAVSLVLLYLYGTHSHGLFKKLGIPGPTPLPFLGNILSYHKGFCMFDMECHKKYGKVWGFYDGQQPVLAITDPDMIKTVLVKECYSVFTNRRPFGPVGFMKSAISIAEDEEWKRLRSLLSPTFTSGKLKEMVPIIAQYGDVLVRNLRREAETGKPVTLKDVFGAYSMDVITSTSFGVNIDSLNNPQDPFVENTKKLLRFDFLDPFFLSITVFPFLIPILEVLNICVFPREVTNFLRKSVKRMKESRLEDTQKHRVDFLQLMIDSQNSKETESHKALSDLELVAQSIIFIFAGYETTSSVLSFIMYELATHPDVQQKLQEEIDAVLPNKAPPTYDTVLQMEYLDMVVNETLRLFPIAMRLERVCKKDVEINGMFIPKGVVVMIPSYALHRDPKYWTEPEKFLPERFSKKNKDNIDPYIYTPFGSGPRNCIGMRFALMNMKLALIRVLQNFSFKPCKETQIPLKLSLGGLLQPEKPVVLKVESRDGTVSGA

Structure (SMILES)	clearance at 24 h (in vivo [1])	Vd at 24 h (in vivo [2])	AUC at 24 h (in vivo [3])	half-life at 24 h (in vivo [4])	bioavailability at 24 h (in vivo [5])	half-life at 40 min, 1 µM (in vitro [6])	half-life at 40 min, 1 µM (in vitro [7])	chromatographic logD (physchem)	half-life at 40 min, 1 µM (CYP3A4)	IC50 (COLO 205)	inhibition [8]
COc1cc([C@@H](CO)NC(=O)[C@@H](C)N2Cc3ccc(-c4nc(NC5CCOCC5)ncc4Cl)cc3C2=O)ccn1	6.8 mL/min/kg	0.26 L/kg	2400 ng·h/mL	90 min	20%	120 min	33 min	3			
COc1cc(F)cc([C@@H](CO)NC(=O)[C@@H](C)N2Cc3ccc(-c4nc(Nc5ccnc(OC)c5)ncc4Cl)cc3C2=O)c1	4.6 mL/min/kg	0.56 L/kg	4100 ng·h/mL	60 min	23%	31 min	25 min	4.2	27 min		
C[C@H](C(=O)N[C@H](CO)c1cccc(N2CCN(C)CC2)n1)N1Cc2ccc(-c3nc(NC4CCOCC4)ncc3Cl)cc2C1=O	8.7 mL/min/kg	0.76 L/kg	1300 ng·h/mL	60 min	15%	120 min	36 min	3.3	17 min		
O=C(CN1Cc2ccc(-c3nc(NC4CCOCC4)ncc3Cl)cc2C1=O)N1CCc2ccccc2CC1	19 mL/min/kg	0.45 L/kg	440 ng·h/mL	84 min	10%	28 min	17 min	4.7	28 min		
C[C@H](C(=O)N[C@H](CO)c1cc(F)cc(N2CCN(C)CC2)c1)N1Cc2ccc(-c3nc(NC4CCOCC4)ncc3Cl)cc2C1=O	124 mL/min/kg	3.8 L/kg	18 ng·h/mL				51 min	3.6			
COc1cc(F)cc([C@@H](CO)NC(=O)[C@@H](C)N2Cc3ccc(-c4nc(NC5COC5)ncc4Cl)cc3C2=O)c1	9.4 mL/min/kg	0.71 L/kg	2650 ng·h/mL	102 min	30%		29 min	3.3	50 min	12 nM	49%
COc1cc(F)cc([C@@H](CO)NC(=O)[C@@H](C)N2Cc3ccc(-c4ccnc(NC5CCOCC5)n4)cc3C2=O)c1	17 mL/min/kg	1 L/kg	320 ng·h/mL	72 min	7%		62 min	3.2	49 min	15 nM	
Cc1cccc([C@@H](CO)NC(=O)CN2Cc3ccc(-c4nc(NC5CCOCC5)ncc4Cl)cc3C2=O)c1	11 mL/min/kg	0.55 L/kg	3000 ng·h/mL	150 min	41%	65 min	40 min	3			
COc1cc(F)cc([C@@H](CO)NC(=O)[C@@H](C)N2Cc3ccc(-c4nc(Nc5ccnn5C)ncc4Cl)cc3C2=O)c1	13 mL/min/kg	0.52 L/kg	824 ng·h/mL	66 min	13%	35 min	23 min	3.3	13 min	10 nM	
C[C@H](C(=O)N[C@H](CO)c1cc(F)cc(F)c1)N1Cc2ccc(-c3nc(NC4CCOCC4)ncc3Cl)cc2C1=O						49 min	23 min		< 5 min		
COc1cc(F)cc([C@@H](CO)NC(=O)[C@@H](C)N2Cc3ncc(-c4nc(NC5CCOCC5)ncc4Cl)cc3C2=O)c1	37 mL/min/kg	1.9 L/kg	500 ng·h/mL	114 min	23%		36 min	3.2	23 min	8 nM	
